Source: patent US20030013660A1, “Dioxolane analogs for improved inter-cellular delivery” (Shire BioChem Inc., priority 2000, published 2003)
Where two headings read alike, the source gives them in different places.

Key:
Test in all cases: 3H-TdR (3H-thymidine) incorporation assay at 72 hr
MCF-7 = type: cell-based, Human; settings: Homo sapiens
CCRF-CEM = type: cell-based; settings: Homo sapiens, CCRF-CEM
Protocol: (§1) Table of IC50 Values (μM) for Controls
(§2) Exposition of 24 hr to drug, wash, incubated for another 48 hr (total of 72 hr assay)
(§3) (3H-Thymidine Incorporation Assay)

CEM/dCK- = type: cell-based; settings: for IC50: Homo sapiens, CCRF-CEM; for Factor* (Resistance Factor = Ratio of dCK- on Wild-type CCRF-CEM): ratio of IC50 CEM/dCK- to CCRF-CEM, 24 h
Protocol: as §1, §2, §3

SF-268 = type: cell-based, Human; settings: Homo sapiens
H-460 = type: cell-based, Human; settings: Homo sapiens
[1] = MCF7, read-out: IC50 MCF-7 24 h, 24 h drug exposure, wash, another 48 hr, 3H-TdR incorporation at 72 hr
[2] = read-out: IC50 CCRF-CEM 24 h, 24 h drug exposure, wash, another 48 hr, 3H-TdR incorporation at 72 hr
[3] = read-out: IC50 CEM/dCK- 24 h, 24 h drug exposure, wash, another 48 hr, deoxycytidine kinase-deficient CCRF-CEM
[4] = SF-268, read-out: IC50 SF-268 24 h, 24 h drug exposure, wash, another 48 hr, 3H-TdR incorporation at 72 hr
[5] = NCI-H460, read-out: IC50 H-460 24 h, 24 h drug exposure, wash, another 48 hr, 3H-TdR incorporation at 72 hr

| Compound | IC50 (MCF-7; [1]) [nM] | IC50 (CCRF-CEM; [2]) [nM] | IC50 (CEM/dCK-; [3]) [nM] | Factor* (Resistance Factor = Ratio of dCK- on Wild-type CCRF-CEM) (CEM/dCK-) | IC50 (SF-268; [4]) [nM] | IC50 (H-460; [5]) [nM] | IC50 (MCF-7; MCF7, read-out: IC50 MCF-7 24 h) [nM] | IC50 (CCRF-CEM; read-out: IC50 CCRF-CEM 24 h) [nM] | IC50 (CEM/dCK-; read-out: IC50 CEM/dCK- 24 h) [nM] | IC50 (SF-268; SF-268, read-out: IC50 SF-268 24 h) [nM] | IC50 (H-460; NCI-H460, read-out: IC50 H-460 24 h) [nM] |
| --- | --- | --- | --- | --- | --- | --- | --- | --- | --- | --- | --- |
| CCOC(=O)Nc1ccn([C@@H]2CO[C@H](COC(=O)OCC)O2)c(=O)n1 [Compound 47, CARBONIC ACID 4-(4- ETHOXYCARBONYLAMINO-2- OXO-2H-PYRIMIDIN-1-YL)- [1,3]DIOXOLAN-2- YLMETHYL ESTER ETHYL ESTER] | 2400 | 2900 | > 100000 | 34 | 38000 | 1800 | – | – | – | – | – |
| CC(C)(C)C(=O)Nc1ccn([C@@H]2CO[C@H](CO)O2)c(=O)n1 [Compound 49, N-[1-(2-HYDROXYMETHYL- [1,3]DIOXOLAN-4-YL)- CYTOSYL]-2,2-DIMETHYL- PROPIONAMIDE] | 8800 | 570 | > 100000 | 175 | 7100 | 4500 | – | – | – | – | – |
| O=C(Nc1ccn([C@@H]2CO[C@H](CO)O2)c(=O)n1)OCc1ccccc1 [Compound 50, [1-(2-HYDROXYMETHYL- [1,3]DIOXOLAN-4-YL)- CYTOSYL]-CARBAMIC ACID BENZYL ESTER] | 820 | 170 | > 100000 | 588 | 1300 | 1200 | – | – | – | – | – |
| O=C(Nc1ccn([C@@H]2CO[C@H](COC(=O)OCc3ccccc3)O2)c(=O)n1)OCc1ccccc1 [Compound 51, 4-(4- BENZYLOXYCARBONYLAMINOC YTOSYL)-[1,3]DIOXOLAN- 2-YLMETHYL BENZYL CARBONATE] | 570 | 24 | 47000 | 1,958 | 860 | 830 | – | – | – | – | – |
| Nc1ccn([C@@H]2CO[C@H](COC(=O)Cc3ccccc3)O2)c(=O)n1 [Compound 52, (2S,4S)-2- PHENYLACETOXYMETHYL-4- CYTOSIN-1′-YL-1,3- DIOXOLANE] | – | – | – | 400 | – | – | 88 | 1.2 | 480 | 32 | 6.8 |
| COC(C)(C)OC[C@H]1OC[C@@H](n2ccc(N)nc2=O)O1 [Compound 54, 4-AMINO-1-[2-(1- METHOXY-1-METHYL- ETHOXYMETHYL)- [1,3]DIOXOLAN-4-YL]-1H- PYRIMIDIN-2-ONE] | 500 | 120 | 65000 | 542 | 700 | 170 | – | – | – | – | – |
| CCCCCCCC(=O)Nc1ccn([C@@H]2CO[C@H](CO)O2)c(=O)n1 [Compound 55, OCTANOIC ACID [1-(2- HYDROXYMETHYL- [1,3]DIOXOLAN-4-YL)-2- OXO-1, 2-DIHYDRO- PYRIMIDIN-4-YL]-AMIDE] | 7.8 | 12 | 64000 | 5,333 | 47 | 29 | – | – | – | – | – |
| CC(C)(C)C(=O)OCOC[C@H]1OC[C@@H](n2ccc(N)nc2=O)O1 [Compound 58, 2,2-DIMETHYL-PROPIONIC ACID 4-(4-AMINO-2-OXO- 2H-PYRIMIDIN-1-YL)- [1,3]DIOXOLAN-2- YLMETHOXYMETHYL ESTER] | 16 | 14 | 38000 | 2,714 | 130 | 12 | – | – | – | – | – |
| CCCCOC(=O)Nc1ccn([C@@H]2CO[C@H](CO)O2)c(=O)n1 [Compound 59, [1-(2-HYDROXYMETHYL- [1,3]DIOXOLAN-4-YL)-2- OXO-1,2-DIHYDRO- PYRIMIDIN-4-YL]- CARBAMIC ACID BUTYL ESTER] | 190 | 540 | > 100000 | 185 | 690 | 1400 | – | – | – | – | – |
| COCCOCOC[C@H]1OC[C@@H](n2ccc(N)nc2=O)O1 [Compound 62, 4-AMINO-1-[2-(2- METHOXY- ETHOXYMETHOXYMETHYL)- [1,3]DIOXOLAN-4-YL]-1H- PYRIMIDIN-2-ONE] | 1700 | 350 | > 100000 | 288 | 4300 | 890 | – | – | – | – | – |
